From ChEMBL document CHEMBL2046334, “New farnesyltransferase inhibitors in the phenothiazine series” (Bioorg Med Chem Lett, 2012)

molecular target: Protein farnesyltransferase (Homo sapiens, UniProt P49354+P49356); experiment: Inhibition of partially purified human recombinant FTase at 100 uM measured for 15 mins by automated fluorescence based assay relative to control; assay type: protein-complex assay

| Compound | inhibition [%] |
| --- | --- |
| COc1ccc(C(=O)Cn2cc(CNC(=O)CN3c4ccccc4Sc4ccccc43)nn2)cc1 | 24.4 |
| N#Cc1ccc(C(=O)Cn2cc(CNC(=O)CN3c4ccccc4Sc4ccccc43)nn2)cc1 | 24.9 |
| O=C(CN1c2ccccc2Sc2ccccc21)NCc1cn(CC(=O)N2c3ccccc3Sc3ccc(Cl)cc32)nn1 | 0 |
| Cc1ccc(C(=O)Cn2cc(CNC(=O)CCN3c4ccccc4Sc4ccccc43)nn2)cc1 | 44.2 |
| O=C(CN1c2ccccc2Sc2ccccc21)NCc1cn(CC(=O)c2ccc(Cl)cc2)nn1 | 40 |
| O=C(CN1c2ccccc2Sc2ccccc21)NCc1cn(CC(=O)N2c3ccccc3Sc3ccccc32)nn1 | 0 |

Other lines, results leading:

| inhibition [%] | Compound |
| --- | --- |
| 20.7 | N#Cc1ccc(C(=O)Cn2cc(COC(=O)CN3c4ccccc4Sc4ccccc43)nn2)cc1 |
| 35.2 | O=C(CCN1c2ccccc2Sc2ccccc21)OCc1cn(CC(=O)c2ccc(F)cc2)nn1 |
| 10.7 | Cc1ccc(C(=O)Cn2cc(COC(=O)CCN3c4ccccc4Sc4ccccc43)nn2)cc1 |
| 55.1 | N#Cc1ccc(C(=O)Cn2cc(COC(=O)CCN3c4ccccc4Sc4ccccc43)nn2)cc1 |
| 31.9 | O=C(CN1c2ccccc2Sc2ccccc21)OCc1cn(CC(=O)c2ccc(F)cc2)nn1 |
| 22.3 | COc1ccc(C(=O)Cn2cc(COC(=O)CCN3c4ccccc4Sc4ccccc43)nn2)cc1 |
